Assays:
A2A adenosine receptor = target: T1, A2A adenosine receptor (Homo sapiens, UniProt P29274); assay: Radioligand binding test ([3H]CGS21680 displacement, hA2A HEK-293 cell membrane); settings: calculated from IC50 by Cheng and Prusoff equation; [3H]CGS21680 25 nM, Km 22 nM; 25° C., 90 minutes
T1 construct: purchased PerkinElmer Research Products (Boston, Mass.); host or cells: HEK-293 cells, stably transfected; membrane preparation
Protocol: [3H]CGS21680 (2-[p-(2-carboxyethyl)phenylethylamino]-5′-N-ethylformamidoadenosine, [carboxy-1-ethyl-3H(N)]; 250 μCi) was purchased from PerkinElmer Research Products (Boston, Mass.).
Cell membrane stably transfected with (human) A2A adenosine receptor was prepared in HEK-293 cells. The cell membrane was obtained from PerkinElmer Research Products (Boston, Mass.).
CGS21680 (2-[p-(2-carboxyethyl)phenylethylamino]-5′-N-ethylformamidoadenosine) was purchased from Selleck (Shanghai, CN).
The A2A adenosine receptors used were all expressed in the cell membrane. […] The specific binding percentage of [3H]CGS21680 was calculated according to the CPM value, % specific binding of [3H]CGS21680=(CPMsample−CPMLow Control)/(CPMHigh Control−CPMLow Control)*100, in which
High Control was 0.5% DMSO, Low Control was 100 μM CGS21680. The IC50 value was calculated based on the compound concentration and the specific binding percentage of [3H]CGS21680 by curve fitting.
The inhibition constant (Ki) value was calculated from the IC50 value according to the Cheng and Prusoff equation, Ki=IC50/(1+[S]/Km), in which [S] was the concentration of the radioligand (25 nM), and Km was the human A2AAR dissociation constant (22 nM) of [3H]CGS21680. The inhibition constant Ki values for Compounds 1 to 20 of the present invention binding to A2A adenosine receptor were shown in Table 1.

[1] = target: human adenosine receptor A2A (Homo sapiens, UniProt P29274); assay: Adenosine receptor A2A cAMP test (LANCE Ultra cAMP, hADORA2A-HEK293 cells); format: cell-based
human adenosine receptor A2A, sequence (P29274 whole entry): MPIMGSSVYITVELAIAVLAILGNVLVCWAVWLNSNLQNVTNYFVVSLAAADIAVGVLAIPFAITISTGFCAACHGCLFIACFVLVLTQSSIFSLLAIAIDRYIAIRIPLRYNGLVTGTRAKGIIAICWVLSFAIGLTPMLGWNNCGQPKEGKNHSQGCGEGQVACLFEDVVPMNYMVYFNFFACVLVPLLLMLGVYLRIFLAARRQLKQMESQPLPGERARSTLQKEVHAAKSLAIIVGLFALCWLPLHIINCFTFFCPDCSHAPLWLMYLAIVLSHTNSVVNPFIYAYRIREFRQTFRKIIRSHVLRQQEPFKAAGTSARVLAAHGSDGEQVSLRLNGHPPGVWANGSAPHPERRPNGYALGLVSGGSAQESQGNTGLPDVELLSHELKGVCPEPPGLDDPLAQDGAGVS
From the text: Experimental reagents and consumables: DMEM/F12, G418, Penicillin-Streptomycin, Versene Solution, HEPES, Hank's Buffered Saline Solution, PBS (pH 7.4, 1×, sterile), FBS, BSA Stabilizer 7.5%, Rolipram, NECA, were purchased from Gibico, Hyclone and Sigma, respectively. LANCE® Ultra cAMP kit (Eu-cAMP tracer, Ulight-anti-cAMP reagent, cAMP detection buffer) and hADORA2A-HEK293 cells were purchased from PerkinElmer Research Products (Boston, Mass.). All other reagents were of analytical grade and obtained from commercial sources. 384-well polypropylene microplate and 384-well white solid plate were purchased from Labcyte and Corning, respectively.
Cells stably expressing human adenosine receptor A2A (hADORA2A-HEK293 cells) were cultured in DMEM/F12 medium containing 10% FBS, 1× Penicillin-Streptomycin and 400 μg/ml G418 in a 37° C., 5% CO2 environment. Before the experiment, the cells were digested with Versene solution, and the cells were collected by centrifugation at 200 g at room temperature for 5 minutes, and finally resuspended with detection buffer (Hank's buffered saline solution, containing 5 mM HEPES, 0.1% BSA stabilizer and 10 μM Rolipram, pH 7.4). TECAN automated pipetting workstation was used to prepare a compound source plate by 3-fold diluting the compound in a 384-well polypropylene microplate with DMSO to form 11 concentration points, in which the 11 concentration points of the compound were 10 mM, 3.33 mM, 1.11 mM, 0.37 mM, 0.12 mM, 0.041 mM, 0.013 mM, 4.57×10^−3 mM, 1.52×10^−3 mM, 5×10^−4 mM and 1.7×10^−4 mM, respectively. Echo ultrasonic pipetting system (Labcyte) was used to transfer the test compound from the compound source plate to the detection plate, in which the volume of the compound transferred was 10 nl/well. The hADORA2A-HEK293 cell suspension was diluted with detection buffer to 30,000 cells/ml, and the cell suspension was transferred to the detection plate at a volume of 10 μl/well (300 cells/well). The detection plate was centrifuged at 150 g for 1 minute and pre-incubated at room temperature for 30 minutes. […] EnVison microplate reader (EnVision multimode plate reader, PerkinElmer) was used to test the level of cyclic adenosine monophosphate in the final solution (λex=320 nm, λem=665 nm & 615 nm). The EC50 (nM) value of the compound interacting with A2A adenosine receptor to stimulate the production of a level of cyclic adenosine monophosphate was calculated. The compound A2A receptor agonist titer was expressed as the EC50 (nM) value of the compound interacting with the A2A adenosine receptor to stimulate the production of a level of cyclic adenosine monophosphate.

T1 sequence (P29274 whole entry): as above

Structure (SMILES)	Ki (A2A adenosine receptor) [µM]	melting point [°C]	hA2AAR agonist function (in words) ([1]; conclusion from cAMP test)	EC50 ([1]; hADORA2A-HEK293 cells, 300 cells/well, stimulation of cyclic adenosine monophosphate) [µM]
CSCC/C=N/Nc1ncnc2c1ncn2[C@@H]1O[C@H](CO)C(O)C1O (stereo partly drawn) [Compound 2, (2R,3S,4R,5R)-2-(hydroxymethyl)-5-{6-{2-[(E)-3-(methylthio)propylene]hydrazino}-9H-purin-9-yl}tetrahydrofuran-3,4-diol]	2.15	94	–	–
OC[C@H]1O[C@@H](n2cnc3c(N/N=C/c4ccc(OCc5ccccc5)c(OCc5ccccc5)c4)ncnc32)C(O)C1O (stereo partly shown) [Compound 4]	> 10	186	–	–
OC[C@H]1O[C@@H](n2cnc3c(N/N=C/c4ccc(-c5ccccn5)cc4)ncnc32)[C@H](O)[C@@H]1O [Compound 9, (2R,3S,4R,5R)-2-(hydroxymethyl)-5-{6-{2-[(E)-4-(pyridin-2-yl)benzylidene]hydrazino}-9H-purin-9-yl}tetrahydrofuran-3,4-diol]	4.59	236	–	–
OC[C@H]1O[C@@H](n2cnc3c(N/N=C/c4ccc(-c5ccccc5)cc4)ncnc32)C(O)C1O (stereo partly shown) [Compound 10]	1.9	170	–	–
CCCOc1ccc(/C=N/Nc2ncnc3c2ncn3[C@@H]2O[C@H](CO)[C@@H](O)[C@H]2O)cc1 [Compound 13, (2R,3S,4R,5R)-2-(hydroxymethyl)-5-{6-{2-[(E)-4-propoxybenzylidene]hydrazino}-9H-purin-9-yl}tetrahydrofuran-3,4-diol]	4.47	202	–	–
OC[C@H]1O[C@@H](n2cnc3c(N/N=C/c4ccc(Cl)c(C(F)(F)F)c4)ncnc32)C(O)C1O (stereo partly shown) [Compound 18]	1.47	196	–	–
OC[C@H]1O[C@@H](n2cnc3c(N/N=C/c4ccc(N(c5ccccc5)c5ccccc5)cc4)ncnc32)C(O)C1O (stereo partly shown) [Compound 19]	5.58	160	–	–
CCCCc1nc(/C=N/Nc2ncnc3c2ncn3[C@@H]2O[C@H](CO)[C@@H](O)[C@H]2O)c(Cl)[nH]1 [Compound 20, (2R,3R,4S,5R)-2-{6-{2-[(E)-(2-butyl-5-chloro-1H-imidazol-4-yl)methylene]hydrazino}-9H-purin-9-yl}-5-(hydroxymethyl)tetrahydrofuran-3,4-diol]	0.998	178	–	–

These reach a lower Ki (A2A adenosine receptor). Values come first.

Ki (A2A adenosine receptor) [µM]	melting point [°C]	hA2AAR agonist function (in words) ([1]; conclusion from cAMP test)	EC50 ([1]; hADORA2A-HEK293 cells, 300 cells/well, stimulation of cyclic adenosine monophosphate) [µM]	Structure (SMILES)
0.945	160	–	–	OC[C@H]1O[C@@H](n2cnc3c(N/N=C/c4ccc[nH]4)ncnc32)[C@H](O)[C@@H]1O [Compound 1, (2R,3R,4S,5R)-2-{6-{2-[(E)-(1H-pyrrol-2-yl)methylene]hydrazino}-9H-purin-9-yl}-5-(hydroxymethyl)tetrahydrofuran-3,4-diol]
0.0036	170	–	–	CC(=O)Nc1ccc(/C=N/Nc2ncnc3c2ncn3[C@@H]2O[C@H](CO)C(O)C2O)cc1 (stereo partly drawn) [Compound 3, N-{4-{(E)-{2-{9-[(2R,3R,4S,5R)-3,4-dihydroxy-5-(hydroxymethyl)tetrahydrofuran-2-yl]-9H-purin-6-yl}hydrazino}methyl}phenyl}acetamide]
0.0012	200	–	–	OC[C@H]1O[C@@H](n2cnc3c(N/N=C/c4ccc(C(F)(F)F)cc4C(F)(F)F)ncnc32)[C@H](O)[C@@H]1O [Compound 6, (2R,3R,4S,5R)-2-{6-{2-[(E)-2,4-bis(trifluoromethyl)benzylidene]hydrazino}-9H-purin-9-yl}-5-(hydroxymethyl)tetrahydrofuran-3,4-diol]
0.236	140	–	–	OC[C@H]1O[C@@H](n2cnc3c(N/N=C/c4cccc(OCc5ccccc5)c4)ncnc32)[C@H](O)[C@@H]1O [Compound 8, (2R,3R,4S,5R)-2-{6-{2-[(E)-3-(benzyloxy)benzylidene]hydrazino}-9H-purin-9-yl}-5-(hydroxymethyl)tetrahydrofuran-3,4-diol]
0.002	202	–	–	OC[C@H]1O[C@@H](n2cnc3c(N/N=C/c4ccc(N5CCCC5)cc4)ncnc32)[C@H](O)[C@@H]1O [Compound 11, (2R,3S,4R,5R)-2-(hydroxymethyl)-5-{6-{2-[(E)-4-(pyrrolidin-1-yl)benzylidene]hydrazino}-9H-purin-9-yl}tetrahydrofuran-3,4-diol]
0.0154	222	–	–	OC[C@H]1O[C@@H](n2cnc3c(N/N=C/c4ccc(-n5ccnc5)cc4)ncnc32)[C@H](O)[C@@H]1O [Compound 12, (2R,3R,4S,5R)-2-{6-{2-[(E)-4-(1H-imidazol-1-yl)benzylidene]hydrazino}-9H-purin-9-yl}-5(hydroxymethyl)tetrahydrofuran-3,4-diol]
0.52	182	–	–	OC[C@H]1O[C@@H](n2cnc3c(N/N=C/c4ccc(C(F)(F)F)cc4)ncnc32)[C@H](O)[C@@H]1O [Compound 14, (2R,3S,4R,5R)-2-(hydroxymethyl)-5-{6-{2-[(E)-4-(trifluoromethyl)benzylidene]hydrazino}-9H-purin-9-yl}tetrahydrofuran-3,4-diol]
0.0158	224	hA2AAR agonists	0.0435	OC[C@H]1O[C@@H](n2cnc3c(N/N=C/c4cncs4)ncnc32)[C@H](O)[C@@H]1O [Compound 16, (2R,3S,4R,5R)-2-(hydroxymethyl)-5-{6-{2-[(E)-thiazol-5-yl-methylene]hydrazino}-9H-purin-9-yl}tetrahydrofuran-3,4-diol]
0.0014	172	–	–	CN(C)c1ccc(/C=C/C=N/Nc2ncnc3c2ncn3[C@@H]2O[C@H](CO)[C@@H](O)[C@H]2O)cc1 [Compound 17, (2R,3R,4S,5R)-2-{6-{2-{(1E,2E)-3-[4-(dimethylamino)phenyl]allylidene}hydrazino}-9H-purin-9-yl}-5-(hydroxymethyl)tetrahydrofuran-3,4-diol]
0.0012	178	–	–	CCCCC/C=C/C=C/C=N/Nc1ncnc2c1ncn2[C@@H]1O[C@H](CO)[C@@H](O)[C@H]1O [Compound 21, (2R,3R,4S,5R)-2-{6-{2-[(1E,2E,4E)-deca-2,4-dien-1-ylidene]hydrazino}-9H-purin-9-yl}-5(hydroxymethyl)tetrahydrofuran-3,4-diol]
0.0866	132	–	–	OC[C@H]1O[C@@H](n2cnc3c(N/N=C/C4CCCCC4)ncnc32)[C@H](O)[C@@H]1O [Compound 22, (2R,3R,4S,5R)-2-{6-{2-[(E)-cyclohexylmethylene]hydrazino}-9H-purin-9-yl}-5-(hydroxylmethyl)tetrahydrofuran-3,4diol]

— patent publication US20220380402A1, “6-HYDRAZINOADENOSINE COMPOUNDS WITH A2A ADENOSINE RECEPTOR AGONIST ACTIVITY” (ACADEMY OF MILITARY MEDICAL SCIENCES, priority 2019, published 2022)
